From ChEMBL document CHEMBL4879554, “Data for DCP probe GNE-2256” (2021)
Calls of active or inactive are those of the source. The rule behind the calls is not given here.

How the values were obtained:
[1] = target: Casein kinase I isoform delta (Homo sapiens) (UniProt P48730); test: CK1_delta Kinase panel; settings: Compound concentration 1.0 uM
[2] = target: Receptor tyrosine-protein kinase erbB-4 (Homo sapiens) (UniProt Q15303); test: ErbB4 Kinase panel; settings: Compound concentration 1.0 uM
[3] = target: DNA-dependent protein kinase catalytic subunit (Homo sapiens) (UniProt P78527); test: DNA_PK Kinase panel; settings: Compound concentration 1.0 uM
[4] = target: Platelet-derived growth factor receptor alpha (Homo sapiens) (UniProt P16234); test: PDGFR_alpha Kinase panel; settings: Compound concentration 1.0 uM
[5] = target: Activin receptor type-2B (Homo sapiens) (UniProt Q13705); test: ACVR2B Kinase panel; settings: Compound concentration 1.0 uM
[6] = target: Vascular endothelial growth factor receptor 3 (Homo sapiens) (UniProt P35916); test: Flt4 Kinase panel; settings: Compound concentration 1.0 uM
[7] = target: Tyrosine-protein kinase ABL1 (Homo sapiens) (UniProt P00519); test: Abl Kinase panel; settings: Compound concentration 1.0 uM
[8] = target: Mitogen-activated protein kinase kinase kinase 20 (Homo sapiens) (UniProt Q9NYL2); test: ZAK Kinase panel; settings: Compound concentration 1.0 uM
[9] = target: Serine/threonine-protein kinase MRCK alpha (Homo sapiens) (UniProt Q5VT25); test: MRCK_alpha Kinase panel; settings: Compound concentration 1.0 uM
[10] = target: Cyclin-dependent kinase 1/cyclin B (Homo sapiens) (UniProt P06493+P14635+Q8WWL7+O95067); test: CDK1/cyclinB Kinase panel; type: protein-complex assay; settings: Compound concentration 1.0 uM
[11] = target: MAP kinase-activated protein kinase 2 (Homo sapiens) (UniProt P49137); test: MAPKAPK2 Kinase panel; settings: Compound concentration 1.0 uM
[12] = target: Serine/threonine-protein kinase SIK2 (Homo sapiens) (UniProt Q9H0K1); test: SIK2 Kinase panel; settings: Compound concentration 1.0 uM
[13] = target: Serine/threonine-protein kinase 4 (Homo sapiens) (UniProt Q13043); test: MST1 Kinase panel; settings: Compound concentration 1.0 uM
[14] = target: Mitogen-activated protein kinase kinase kinase kinase 1 (Homo sapiens) (UniProt Q92918); test: HPK1 Kinase panel; settings: Compound concentration 1.0 uM
[15] = target: Megakaryocyte-associated tyrosine-protein kinase (Homo sapiens) (UniProt P42679); test: Hyl Kinase panel; settings: Compound concentration 1.0 uM
[16] = target: Serine/threonine-protein kinase PAK 1 (Homo sapiens) (UniProt Q13153); test: PAK1 Kinase panel; settings: Compound concentration 1.0 uM
[17] = target: Casein kinase I isoform epsilon (Homo sapiens) (UniProt P49674); test: CK1_epsilon1 Kinase panel; settings: Compound concentration 1.0 uM
[18] = target: Histamine H1 receptor (Homo sapiens) (UniProt P35367); settings: Compound concentration 10.0 uM
[19] = IFNalpha human whole blood assay; type: tissue-based
[20] = target: Serine/threonine-protein kinase Sgk1 (Homo sapiens) (UniProt O00141); test: SGK1 Kinase panel; settings: Compound concentration 1.0 uM
[21] = target: Calcium/calmodulin-dependent protein kinase type II subunit beta (Homo sapiens) (UniProt Q13554); test: CaMKII_beta Kinase panel; settings: Compound concentration 1.0 uM
[22] = target: Dual specificity mitogen-activated protein kinase kinase 3 (Homo sapiens) (UniProt P46734); test: MEK3 Kinase panel; settings: Compound concentration 1.0 uM
[23] = target: GABA-A receptor; anion channel (Rattus norvegicus) (UniProt O09028+P15431+P18506+P18508+P19969+P20236+P23574+P23576+P28471+P28473+P30191+P62813+P63079+P63138+Q91ZM7+Q9ES14); settings: Compound concentration 10.0 uM
[24] = target: Activated CDC42 kinase 1 (Homo sapiens) (UniProt Q07912); test: TNK2 Kinase panel; settings: Compound concentration 1.0 uM
[25] = target: Casein kinase I isoform alpha (Homo sapiens) (UniProt P48729); test: CK1_alpha1 Kinase panel; settings: Compound concentration 1.0 uM
[26] = target: Cytoplasmic tyrosine-protein kinase BMX (Homo sapiens) (UniProt P51813); test: Bmx Kinase panel; settings: Compound concentration 1.0 uM
[27] = target: Mitogen-activated protein kinase kinase kinase kinase 4 (Homo sapiens, UniProt O95819); test: MAP4K4 Kinase panel
[28] = target: Homeodomain-interacting protein kinase 1 (Homo sapiens) (UniProt Q86Z02); test: HIPK1 Kinase panel; settings: Compound concentration 1.0 uM
[29] = target: Casein kinase I isoform gamma-2 (Homo sapiens) (UniProt P78368); test: CK1_gamma2 Kinase panel; settings: Compound concentration 1.0 uM
[30] = target: Dual specificity protein kinase TTK (Homo sapiens) (UniProt P33981); test: TTK Kinase panel; settings: Compound concentration 1.0 uM
[31] = target: Sodium-dependent dopamine transporter (Homo sapiens) (UniProt Q01959); settings: Compound concentration 10.0 uM
[32] = target: Protein-tyrosine kinase 6 (Homo sapiens) (UniProt Q13882); test: Brk Kinase panel; settings: Compound concentration 1.0 uM
[33] = target: Serine/threonine-protein kinase Nek1 (Homo sapiens) (UniProt Q96PY6); test: NEK1 Kinase panel; settings: Compound concentration 1.0 uM
[34] = target: Casein kinase II subunit alpha (Homo sapiens) (UniProt P68400); test: CK2_alpha1 Kinase panel; settings: Compound concentration 1.0 uM
Rattus norvegicus = species on record: Rattus norvegicus; settings: Compound concentration 10.0 uM
[35] = target: Dual specificity mitogen-activated protein kinase kinase 1 (Homo sapiens) (UniProt Q02750); test: MEK1 Kinase panel; settings: Compound concentration 1.0 uM
[36] = target: Aurora kinase A (Homo sapiens) (UniProt O14965); test: Aurora_A Kinase panel; settings: Compound concentration 1.0 uM
[37] = target: Fibroblast growth factor receptor 1 (Homo sapiens) (UniProt P11362); test: FGFR1 Kinase panel; settings: Compound concentration 1.0 uM
[38] = target: Tyrosine-protein kinase Tec (Homo sapiens) (UniProt P42680); test: TEC Kinase panel; settings: Compound concentration 1.0 uM
Homo sapiens = species on record: Homo sapiens; test: PKA Kinase panel; settings: Compound concentration 1.0 uM
[39] = target: Calcium/calmodulin-dependent protein kinase type IV (Homo sapiens) (UniProt Q16566); test: CamKIV Kinase panel; settings: Compound concentration 1.0 uM
[40] = target: Serine/threonine-protein kinase BRSK1 (Homo sapiens) (UniProt Q8TDC3); test: BrSK1 Kinase panel; settings: Compound concentration 1.0 uM
[41] = target: Serine/threonine-protein kinase 24 (Homo sapiens) (UniProt Q9Y6E0); test: MST3 Kinase panel; settings: Compound concentration 1.0 uM
[42] = target: Calcium/calmodulin-dependent protein kinase type 1 (Homo sapiens) (UniProt Q14012); test: CaMKI Kinase panel; settings: Compound concentration 1.0 uM
[43] = target: Epidermal growth factor receptor (Homo sapiens) (UniProt P00533); test: EGFR Kinase panel; settings: Compound concentration 1.0 uM

Chain of Protein-tyrosine kinase 6 (Homo sapiens) (Q13882 whole entry, looked up): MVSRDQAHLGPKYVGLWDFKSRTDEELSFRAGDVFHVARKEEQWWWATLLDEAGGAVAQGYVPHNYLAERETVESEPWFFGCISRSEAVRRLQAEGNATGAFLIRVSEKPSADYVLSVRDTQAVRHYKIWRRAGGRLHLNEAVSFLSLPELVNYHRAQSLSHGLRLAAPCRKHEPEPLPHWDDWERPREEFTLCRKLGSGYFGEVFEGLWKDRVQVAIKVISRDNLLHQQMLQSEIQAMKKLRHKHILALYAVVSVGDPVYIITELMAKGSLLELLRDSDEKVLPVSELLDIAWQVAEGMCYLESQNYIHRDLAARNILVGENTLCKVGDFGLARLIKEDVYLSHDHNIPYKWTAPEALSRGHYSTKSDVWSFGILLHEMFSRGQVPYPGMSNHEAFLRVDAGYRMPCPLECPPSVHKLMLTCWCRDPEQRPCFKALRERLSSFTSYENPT
Chain of Activated CDC42 kinase 1 (Homo sapiens) (Q07912 whole entry, looked up, canonical isoform): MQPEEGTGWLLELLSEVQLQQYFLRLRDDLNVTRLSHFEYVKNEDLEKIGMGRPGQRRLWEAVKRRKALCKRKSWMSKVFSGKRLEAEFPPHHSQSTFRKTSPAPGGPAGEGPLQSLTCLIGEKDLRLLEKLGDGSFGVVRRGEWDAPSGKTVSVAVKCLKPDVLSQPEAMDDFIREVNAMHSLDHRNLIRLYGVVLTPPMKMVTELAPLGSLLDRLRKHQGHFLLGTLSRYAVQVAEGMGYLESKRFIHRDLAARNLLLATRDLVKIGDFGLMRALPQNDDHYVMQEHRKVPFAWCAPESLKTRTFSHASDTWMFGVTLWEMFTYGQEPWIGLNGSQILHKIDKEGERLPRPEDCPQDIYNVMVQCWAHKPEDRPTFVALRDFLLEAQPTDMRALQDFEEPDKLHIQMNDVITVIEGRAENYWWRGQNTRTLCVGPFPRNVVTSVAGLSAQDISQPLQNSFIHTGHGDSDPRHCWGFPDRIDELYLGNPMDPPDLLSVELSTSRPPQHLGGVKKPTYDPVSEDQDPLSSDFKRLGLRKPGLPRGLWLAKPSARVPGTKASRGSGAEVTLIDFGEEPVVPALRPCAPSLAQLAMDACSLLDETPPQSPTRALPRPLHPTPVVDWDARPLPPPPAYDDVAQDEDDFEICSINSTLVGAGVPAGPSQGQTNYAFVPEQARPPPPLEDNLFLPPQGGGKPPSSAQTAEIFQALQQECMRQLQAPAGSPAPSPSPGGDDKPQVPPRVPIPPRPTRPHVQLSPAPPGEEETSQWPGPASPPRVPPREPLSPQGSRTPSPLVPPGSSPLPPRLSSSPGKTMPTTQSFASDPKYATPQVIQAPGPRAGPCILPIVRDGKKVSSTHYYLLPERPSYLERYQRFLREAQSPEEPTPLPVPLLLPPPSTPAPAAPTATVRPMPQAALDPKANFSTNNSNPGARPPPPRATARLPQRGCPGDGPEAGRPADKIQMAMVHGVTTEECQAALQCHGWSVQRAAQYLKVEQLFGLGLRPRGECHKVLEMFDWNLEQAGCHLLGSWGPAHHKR
Chain of Megakaryocyte-associated tyrosine-protein kinase (Homo sapiens) (P42679 whole entry): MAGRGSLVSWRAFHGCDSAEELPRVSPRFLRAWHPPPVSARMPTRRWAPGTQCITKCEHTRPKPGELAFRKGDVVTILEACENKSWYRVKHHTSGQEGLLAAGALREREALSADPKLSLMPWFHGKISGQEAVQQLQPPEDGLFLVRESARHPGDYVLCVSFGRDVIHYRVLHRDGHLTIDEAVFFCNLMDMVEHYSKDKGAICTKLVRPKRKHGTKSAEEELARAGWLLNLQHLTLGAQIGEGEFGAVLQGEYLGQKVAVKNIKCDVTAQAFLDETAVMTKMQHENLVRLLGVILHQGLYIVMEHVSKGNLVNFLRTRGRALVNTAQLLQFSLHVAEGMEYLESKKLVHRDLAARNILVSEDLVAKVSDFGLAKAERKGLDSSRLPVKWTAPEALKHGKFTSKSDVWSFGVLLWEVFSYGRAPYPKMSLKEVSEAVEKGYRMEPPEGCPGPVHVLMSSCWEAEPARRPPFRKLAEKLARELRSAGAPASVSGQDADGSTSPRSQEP
Chain of Receptor tyrosine-protein kinase erbB-4 (Homo sapiens) (Q15303 whole entry): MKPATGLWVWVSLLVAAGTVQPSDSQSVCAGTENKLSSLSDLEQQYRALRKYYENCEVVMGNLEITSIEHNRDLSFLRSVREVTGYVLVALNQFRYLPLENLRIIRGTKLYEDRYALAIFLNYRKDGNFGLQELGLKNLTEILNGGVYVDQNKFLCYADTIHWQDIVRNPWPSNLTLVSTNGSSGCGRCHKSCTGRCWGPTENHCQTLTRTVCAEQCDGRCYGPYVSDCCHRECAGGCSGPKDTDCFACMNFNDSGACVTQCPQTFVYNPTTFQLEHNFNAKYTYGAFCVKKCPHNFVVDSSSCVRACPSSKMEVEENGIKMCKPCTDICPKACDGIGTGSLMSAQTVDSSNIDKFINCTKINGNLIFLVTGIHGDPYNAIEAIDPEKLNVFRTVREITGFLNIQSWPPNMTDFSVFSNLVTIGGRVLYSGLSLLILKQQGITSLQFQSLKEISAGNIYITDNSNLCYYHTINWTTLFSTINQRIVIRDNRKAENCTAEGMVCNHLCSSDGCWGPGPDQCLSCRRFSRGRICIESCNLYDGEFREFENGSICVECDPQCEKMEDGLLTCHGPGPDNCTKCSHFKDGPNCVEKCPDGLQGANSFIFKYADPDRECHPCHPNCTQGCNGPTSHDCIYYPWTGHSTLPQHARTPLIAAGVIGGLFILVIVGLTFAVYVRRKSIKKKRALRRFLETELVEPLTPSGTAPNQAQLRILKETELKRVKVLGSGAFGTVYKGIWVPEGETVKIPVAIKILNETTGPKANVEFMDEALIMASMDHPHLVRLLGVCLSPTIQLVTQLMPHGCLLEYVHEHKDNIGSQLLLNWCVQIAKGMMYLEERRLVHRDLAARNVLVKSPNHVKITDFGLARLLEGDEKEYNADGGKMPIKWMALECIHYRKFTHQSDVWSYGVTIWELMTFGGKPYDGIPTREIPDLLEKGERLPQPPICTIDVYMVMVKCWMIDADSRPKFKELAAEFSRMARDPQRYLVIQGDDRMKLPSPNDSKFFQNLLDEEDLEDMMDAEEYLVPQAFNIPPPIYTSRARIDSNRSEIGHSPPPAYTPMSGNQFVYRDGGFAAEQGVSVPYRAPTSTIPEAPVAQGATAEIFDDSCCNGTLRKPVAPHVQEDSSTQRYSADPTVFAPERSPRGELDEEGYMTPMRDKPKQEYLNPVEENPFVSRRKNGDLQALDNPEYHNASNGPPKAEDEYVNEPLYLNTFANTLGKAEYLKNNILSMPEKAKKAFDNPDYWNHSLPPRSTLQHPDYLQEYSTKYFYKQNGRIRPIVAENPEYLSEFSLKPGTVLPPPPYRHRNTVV
Chain of Serine/threonine-protein kinase 4 (Homo sapiens) (Q13043 whole entry): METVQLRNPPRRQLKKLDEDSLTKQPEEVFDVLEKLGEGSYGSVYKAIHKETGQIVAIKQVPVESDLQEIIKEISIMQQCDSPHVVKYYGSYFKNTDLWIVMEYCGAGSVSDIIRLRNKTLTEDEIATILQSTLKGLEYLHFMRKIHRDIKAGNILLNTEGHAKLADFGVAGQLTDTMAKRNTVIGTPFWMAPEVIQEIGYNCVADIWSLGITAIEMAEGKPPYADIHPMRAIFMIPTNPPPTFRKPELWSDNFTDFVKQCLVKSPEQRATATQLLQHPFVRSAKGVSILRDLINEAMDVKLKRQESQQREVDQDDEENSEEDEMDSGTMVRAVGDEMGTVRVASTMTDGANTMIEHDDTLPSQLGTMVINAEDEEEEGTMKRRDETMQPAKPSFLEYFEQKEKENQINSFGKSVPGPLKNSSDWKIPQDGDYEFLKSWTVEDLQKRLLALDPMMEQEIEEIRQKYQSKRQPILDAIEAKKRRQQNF
Chain of Serine/threonine-protein kinase BRSK1 (Homo sapiens) (Q8TDC3 whole entry): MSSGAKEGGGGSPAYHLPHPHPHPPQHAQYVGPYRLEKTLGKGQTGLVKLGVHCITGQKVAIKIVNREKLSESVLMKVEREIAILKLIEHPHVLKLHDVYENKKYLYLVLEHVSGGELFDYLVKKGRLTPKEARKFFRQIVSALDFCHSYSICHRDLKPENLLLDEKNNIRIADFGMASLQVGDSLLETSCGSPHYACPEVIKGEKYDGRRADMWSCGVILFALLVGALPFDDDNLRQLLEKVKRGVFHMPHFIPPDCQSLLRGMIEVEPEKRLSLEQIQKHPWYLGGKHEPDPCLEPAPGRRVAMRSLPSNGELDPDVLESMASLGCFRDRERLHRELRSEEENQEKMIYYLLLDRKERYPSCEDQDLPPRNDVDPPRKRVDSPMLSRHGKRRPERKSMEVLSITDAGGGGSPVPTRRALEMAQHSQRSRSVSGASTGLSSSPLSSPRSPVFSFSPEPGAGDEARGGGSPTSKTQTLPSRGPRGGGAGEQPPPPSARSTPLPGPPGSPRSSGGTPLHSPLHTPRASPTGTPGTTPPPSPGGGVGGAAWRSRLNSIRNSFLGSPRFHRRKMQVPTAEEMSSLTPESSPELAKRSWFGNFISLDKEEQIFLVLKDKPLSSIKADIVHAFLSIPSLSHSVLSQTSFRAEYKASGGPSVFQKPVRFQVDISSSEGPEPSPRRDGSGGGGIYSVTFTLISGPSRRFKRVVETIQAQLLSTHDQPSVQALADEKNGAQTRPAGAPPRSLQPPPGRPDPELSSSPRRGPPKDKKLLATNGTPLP
Chain of Casein kinase II subunit alpha (Homo sapiens) (P68400 whole entry, looked up): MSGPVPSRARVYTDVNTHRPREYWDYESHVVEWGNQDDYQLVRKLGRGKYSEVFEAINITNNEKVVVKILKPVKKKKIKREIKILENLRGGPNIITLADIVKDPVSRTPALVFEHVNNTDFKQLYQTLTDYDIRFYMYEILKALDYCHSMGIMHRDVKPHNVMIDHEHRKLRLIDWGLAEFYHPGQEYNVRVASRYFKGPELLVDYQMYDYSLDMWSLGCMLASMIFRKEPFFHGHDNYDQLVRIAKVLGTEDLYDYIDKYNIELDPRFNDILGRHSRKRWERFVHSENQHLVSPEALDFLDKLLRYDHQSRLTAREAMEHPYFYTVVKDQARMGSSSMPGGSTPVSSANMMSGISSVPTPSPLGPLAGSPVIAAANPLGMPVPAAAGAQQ

With `CC(C)(O)[C@H](F)CN1Cc2cc(NC(=O)c3cnn4cccnc34)c(N3CCOCC3)cc2C1=O` as the compound, how does the inhibition [1] read?
The inhibition was 1.5%.

And the inhibition [2]?
Its inhibition is 5%.

And the inhibition [3]?
The inhibition was 9%.

And the inhibition [4]?
The inhibition was 40.5%.

And the inhibition [5]?
Its inhibition is 12.5%.

What about the inhibition [6] of the same compound?
The inhibition was 13%.

What about the inhibition [7] of the same compound?
The inhibition was 9.8%.

What about the inhibition [8] of the same compound?
The inhibition was 5.5%.

And the inhibition [9]?
Its inhibition is 1.5%.

And the inhibition [10]?
Its inhibition is 2.5%.

And the inhibition [11]?
The inhibition was 9.5%.

And the inhibition [12]?
The inhibition was 12%.

What about the inhibition [13] of the same compound?
Its inhibition is -1%.

And the inhibition [14]?
The inhibition was 13.3%.

And the inhibition [15]?
Its inhibition is -4%.

What about the inhibition [16] of the same compound?
The inhibition was 9%.

And the inhibition [17]?
The inhibition was 5.5%.

What about the inhibition [18] of the same compound?
The inhibition was 17.7%.

What about the IC50 [19] of the same compound?
The IC50 was 290 nM (active).

What about the inhibition [20] of the same compound?
The inhibition was 4%.

And the inhibition [21]?
The inhibition was -5.5%.

And the inhibition [22]?
Its inhibition is 12%.

What about the inhibition [23] of the same compound?
Its inhibition is 18.5%.

And the inhibition [24]?
Its inhibition is 37.5%.

What about the inhibition [25] of the same compound?
The inhibition was -0.5%.

What about the inhibition [26] of the same compound?
The inhibition was 33.3%.

And the IC50 [27]?
The IC50 was 680 nM.

And the inhibition ([27]; Compound concentration 1.0 uM)?
The inhibition was 86.3%.

And the inhibition [28]?
Its inhibition is -0%.

And the inhibition [29]?
The inhibition was 5%.

What about the inhibition [30] of the same compound?
The inhibition was 13%.

And the inhibition [31]?
The inhibition was 20%.

What about the inhibition [32] of the same compound?
Its inhibition is 10.5%.

And the inhibition [33]?
Its inhibition is 11%.

And the inhibition [34]?
The inhibition was 3.5%.

What about the inhibition (Rattus norvegicus) of the same compound?
The inhibition was -2.15%.

And the inhibition [35]?
Its inhibition is 20.5%.

What about the inhibition [36] of the same compound?
Its inhibition is 20.5%.

What about the inhibition [37] of the same compound?
The inhibition was 5.5%.

And the inhibition [38]?
Its inhibition is 0.5%.

What about the inhibition (Homo sapiens) of the same compound?
The inhibition was 5%.

What about the inhibition [39] of the same compound?
Its inhibition is -6%.

And the inhibition [40]?
The inhibition was 3%.

And the inhibition [41]?
The inhibition was 5.5%.

What about the inhibition [42] of the same compound?
Its inhibition is -5.5%.

And the inhibition [43]?
Its inhibition is 6.8%.
